Common to all, as to type: biochemical
The target in one assay is T1, GST-JAK2(808-1132) (Homo sapiens, UniProt O60674).
T1 construct: GST-JAK2(808-1132); purchased Invitrogen (Carlsbad, USA) #4288
Nature of the assay: JAK2 kinase assay (Caliper mobility shift, LabChip 3000). Put shortly:
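Recombinant GST-JAK2(808-1132) kinase domain with FITC-labelled JAK3tide peptide substrate and ATP; 60 min at 30 °C, EDTA stop. Substrate/product ratio read by microfluidic mobility shift; compounds at 8 final concentrations, 10 to 0.003 μM.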

A further assay concerns the target T2, cMet (Homo sapiens, UniProt P08581).
T2 construct: using the recombinant domains of cMet, cKit, ALK and PDGFRalpha kinases
Put plainly: cMet LanthaScreen TR-FRET kinase phosphorylation assay. As to conditions: recombinant kinase domain. How it is done:
(§1) The compounds are assayed in an antibody based kinase phosphorylation assay using the recombinant domains of cMet, cKit, ALK and PDGFRalpha kinases and a generic phospho-tyrosine peptide substrate. LanthaScreen™ is the detection of Time-Resolved Fluorescence Resonance Energy Transfer (TR-FRET) using lanthanide chelates to measure interactions between various binding partners. In a TR-FRET kinase assay, a long-lifetime lanthanide donor species is conjugated to an antibody that specifically binds to a phosphorylated product of a kinase reaction that is labeled with a suitable acceptor fluorophore. This antibody-mediated interaction brings the lanthanide donor and the acceptor into proximity such that resonance energy transfer can take place, resulting in a detectible increase in FRET. The LanthaScreen is run at ambient temperature and terminated by the addition of stop solution, followed by Tb-labeled P-20 antibody. After incubating in the dark, the plates are transferred to a fluorescence reader for counting. The effect of compound on the enzymatic activity is in all assays obtained from the linear progress curves and determined from one reading (end point measurement).
In general terms: In TR-FRET formats the signal depends on donor and acceptor labels being close together.

A further assay concerns the target T3, cKit (Homo sapiens, UniProt P10721).
T3 construct: using the recombinant domains of cMet, cKit, ALK and PDGFRalpha kinases
Put plainly: cKit LanthaScreen TR-FRET kinase phosphorylation assay. To be noted: recombinant kinase domain. The procedure: as §1

For the next assay, the target named is T4, ALK (Homo sapiens, UniProt Q9UM73).
T4 construct: using the recombinant domains of cMet, cKit, ALK and PDGFRalpha kinases
T4 sequence (Q9UM73 1116-1392 limits assumed, species assumed): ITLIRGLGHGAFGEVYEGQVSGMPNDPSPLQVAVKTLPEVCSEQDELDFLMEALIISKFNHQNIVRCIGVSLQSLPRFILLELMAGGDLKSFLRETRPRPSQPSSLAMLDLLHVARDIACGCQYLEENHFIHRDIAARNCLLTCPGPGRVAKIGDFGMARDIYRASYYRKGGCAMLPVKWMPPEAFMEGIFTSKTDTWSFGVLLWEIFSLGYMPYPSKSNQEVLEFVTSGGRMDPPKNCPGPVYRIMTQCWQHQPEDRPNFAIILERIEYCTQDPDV
Put plainly: ALK LanthaScreen TR-FRET kinase phosphorylation assay. To be noted: recombinant kinase domain. The procedure: as §1

For the next assay, the target named is T5, PDGFRalpha (Homo sapiens, UniProt P16234).
T5 construct: using the recombinant domains of cMet, cKit, ALK and PDGFRalpha kinases
T5 sequence (P16234 593-954 limits assumed, species assumed): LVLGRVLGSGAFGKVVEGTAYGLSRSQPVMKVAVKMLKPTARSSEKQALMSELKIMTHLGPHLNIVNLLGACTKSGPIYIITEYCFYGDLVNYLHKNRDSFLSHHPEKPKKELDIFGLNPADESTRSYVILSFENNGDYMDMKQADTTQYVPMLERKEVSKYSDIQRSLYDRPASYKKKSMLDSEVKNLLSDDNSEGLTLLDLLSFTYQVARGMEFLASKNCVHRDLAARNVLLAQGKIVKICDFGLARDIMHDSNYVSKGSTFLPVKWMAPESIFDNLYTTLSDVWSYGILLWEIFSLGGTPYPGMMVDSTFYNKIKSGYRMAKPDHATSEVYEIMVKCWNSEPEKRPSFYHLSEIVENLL
Nature of the assay: PDGFRalpha LanthaScreen TR-FRET kinase phosphorylation assay. As to conditions: recombinant kinase domain, read-out: PDGFRa/IC50. The procedure:
as §1

Molecules are shown by their SMILES. Where two headings read alike, the source gives them in different places.

T3 sequence (P10721 589-937 limits assumed): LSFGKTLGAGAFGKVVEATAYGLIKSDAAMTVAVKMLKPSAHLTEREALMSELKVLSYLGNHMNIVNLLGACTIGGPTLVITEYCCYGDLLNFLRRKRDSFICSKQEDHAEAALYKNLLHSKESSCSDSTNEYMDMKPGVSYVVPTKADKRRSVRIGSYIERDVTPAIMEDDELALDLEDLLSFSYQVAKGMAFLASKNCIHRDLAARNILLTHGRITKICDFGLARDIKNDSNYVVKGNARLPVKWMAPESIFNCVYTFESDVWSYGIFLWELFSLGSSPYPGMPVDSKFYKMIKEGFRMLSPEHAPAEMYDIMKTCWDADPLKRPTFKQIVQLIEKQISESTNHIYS
T2 sequence (P08581 1078-1345 limits assumed): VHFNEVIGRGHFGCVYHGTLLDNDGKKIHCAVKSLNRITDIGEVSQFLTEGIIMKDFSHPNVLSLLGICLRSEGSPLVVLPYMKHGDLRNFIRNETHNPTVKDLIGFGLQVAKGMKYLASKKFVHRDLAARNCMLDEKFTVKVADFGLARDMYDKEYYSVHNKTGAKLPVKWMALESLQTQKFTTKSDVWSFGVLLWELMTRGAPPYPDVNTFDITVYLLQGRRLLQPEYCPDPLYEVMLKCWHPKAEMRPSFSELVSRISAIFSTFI
T1 sequence (O60674 808-1132): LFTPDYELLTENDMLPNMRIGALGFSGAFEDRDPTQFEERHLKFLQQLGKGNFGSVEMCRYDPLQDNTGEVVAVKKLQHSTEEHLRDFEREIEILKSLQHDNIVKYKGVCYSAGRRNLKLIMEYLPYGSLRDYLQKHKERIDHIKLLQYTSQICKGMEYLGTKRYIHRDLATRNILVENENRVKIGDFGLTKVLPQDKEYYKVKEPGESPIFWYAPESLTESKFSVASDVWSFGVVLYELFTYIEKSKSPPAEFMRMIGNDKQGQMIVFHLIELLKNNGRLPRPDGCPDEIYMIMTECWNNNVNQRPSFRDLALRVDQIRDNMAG

For `CC1(C)NCCN(c2cc(Nc3ncc4ccn(-c5cc(F)c(CN6CCOCC6)c(F)c5)c4n3)ccn2)C1=O` [Example 503, 1-{4-[7-(3,5-Difluoro-4-morpholin-4-ylmethyl-phenyl)-7H-pyrrolo[2,3-d]pyrimidin-2-ylamino]-pyridin-2-yl}-3,3-dimethyl-piperazin-2-one], the IC50 at GST-JAK2(808-1132) was at most 0.003 µM; at GST-JAK2(808-1132) (Table 3) it was under 0.003 µM; on cMet, 6.1 µM; on cKit, 9.5 µM; at ALK, over 10 µM; on PDGFRalpha, over 10 µM.

Turning to `CN1CCN(c2ccc(Nc3ncc4ccn(-c5cc(F)c(CN6CCS(=O)(=O)CC6)c(F)c5)c4n3)nc2)CC1` [Example 440, {7-[4-(1,1-Dioxido-thiomorpholin-4-ylmethyl)-3,5-difluoro-phenyl]-7H-pyrrolo[2,3-d]pyrimidin-2-yl}-[5-(4-methyl-piperazin-1-yl)-pyridin-2-yl]-amine], the IC50 is 0.0032 µM at GST-JAK2(808-1132); 0.0032 µM at GST-JAK2(808-1132) (Table 3); over 10 µM at cMet; over 10 µM on cKit; over 10 µM on ALK; over 10 µM on PDGFRalpha.

`Cc1ccc(Nc2ncc3ccn(-c4cc(F)c(CN5CCNC(=O)C5)c(F)c4)c3n2)cc1CN1CCNCC1` [Example 382, 4-{2,6-Difluoro-4-[2-(4-methyl-3-piperazin-1-ylmethyl-phenylamino)-pyrrolo[2,3-d]pyrimidin-7-yl]-benzyl}-piperazin-2-one]: the IC50 is 0.0035 µM at GST-JAK2(808-1132); 0.0035 µM on GST-JAK2(808-1132) (Table 3); 2.4 µM on cMet; 1.1 µM at cKit; over 10 µM at ALK; 7.7 µM at PDGFRalpha.

Regarding `Cn1cc(Nc2ncc3ccn(-c4ccc(CC(=O)N5CCOCC5)cc4)c3n2)cn1` [Example 301, 2-{4-[2-(1-Methyl-1H-pyrazol-4-ylamino)-pyrrolo[2,3-d]pyrimidin-7-yl]-phenyl}-1-morpholin-4-yl-ethanone], the IC50 on GST-JAK2(808-1132) was under 0.003 µM; on GST-JAK2(808-1132) (Table 3) it was under 0.003 µM; at cMet, 3.6 µM; on cKit, 4.75 µM; at ALK, over 10 µM; at PDGFRalpha, 5.6 µM.

Consider `Cc1ccc(Nc2ncc3ccn(-c4ccc(C(=O)N5CCOCC5)cc4)c3n2)cn1` [Example 238, {4-[2-(6-Methyl-pyridin-3-ylamino)-pyrrolo[2,3-d]pyrimidin-7-yl]-phenyl}-morpholin-4-yl-methanone], for which the IC50 is 0.0111 µM at GST-JAK2(808-1132); 0.0111 µM at GST-JAK2(808-1132) (Table 3); 8.2 µM on cMet; over 10 µM on cKit; over 10 µM at ALK; 6.6 µM on PDGFRalpha.

As for `COCc1ccc(Nc2ncc3ccn(-c4cc(F)c(CN5CCS(=O)(=O)CC5)c(F)c4)c3n2)cc1` [Example 184, {7-[4-(1,1-Dioxido-thiomorpholin-4-ylmethyl)-3,5-difluoro-phenyl]-7H-pyrrolo[2,3-d]pyrimidin-2-yl}-(4-methoxymethyl-phenyl)-amine], the IC50 at GST-JAK2(808-1132) is under 0.003 µM; at GST-JAK2(808-1132) (Table 3), under 0.003 µM; at cMet it was over 10 µM; on cKit it was over 10 µM; on ALK, over 10 µM; at PDGFRalpha, over 10 µM.

Regarding `CC(C)Oc1ccc(Nc2ncc3ccn(-c4ccc(C#N)cc4)c3n2)cc1` [Example 96, 4-[2-(4-Isopropoxy-phenylamino)-pyrrolo[2,3-d]pyrimidin-7-yl]-benzonitrile], the IC50 was 0.0485 µM on GST-JAK2(808-1132); 0.0485 µM at GST-JAK2(808-1132) (Table 3); over 10 µM on cMet; over 10 µM at cKit; over 10 µM at ALK; over 10 µM at PDGFRalpha.

Consider `Cc1ccc(Nc2ncc3ccn(-c4ccc(C(=O)N5CCN(CCO)CC5)cc4)c3n2)cc1C` [Example 300, {4-[2-(3,4-Dimethyl-phenylamino)-pyrrolo[2,3-d]pyrimidin-7-yl]-phenyl}-[4-(2-hydroxy-ethyl)-piperazin-1-yl]-methanone], for which the IC50 is 0.0175 µM on GST-JAK2(808-1132); 0.0175 µM on GST-JAK2(808-1132) (Table 3); over 10 µM at cMet; 3.4 µM at cKit; over 10 µM on ALK; 7.7 µM at PDGFRalpha.

For `CN1CCN(C(=O)c2cccc(Nc3ncc4ccn(-c5cc(F)c(CN6CCOCC6)c(F)c5)c4n3)c2)CC1` [Example 203, {3-[7-(3,5-Difluoro-4-morpholin-4-ylmethyl-phenyl)-7H-pyrrolo[2,3-d]pyrimidin-2-ylamino]-phenyl}-(4-methyl-piperazin-1-yl)-methanone], the IC50 on GST-JAK2(808-1132) is 0.0074 µM; on GST-JAK2(808-1132) (Table 3), 0.0064 µM; on cMet it was 6.9 µM; on cKit, 4.7 µM; at ALK, over 10 µM; on PDGFRalpha, over 10 µM.

Take `Cc1ccc(Nc2ncc3ccn(-c4cc(F)c(CN5CCOCC5)c(F)c4)c3n2)cc1CN1CCNCC1` [Example 332, [7-(3,5-Difluoro-4-morpholin-4-ylmethyl-phenyl)-7H-pyrrolo[2,3-d]pyrimidin-2-yl]-(4-methyl-3-piperazin-1-ylmethyl-phenyl)-amine]: the IC50 is at most 0.003 µM at GST-JAK2(808-1132); 7.57 µM at cMet; 1.55 µM at cKit; 9.05 µM at ALK; 6.7 µM at PDGFRalpha.

As to `C[C@@H]1CN(c2ccc(Nc3ncc4ccn(-c5ccc(NS(C)(=O)=O)cc5)c4n3)cn2)C[C@H](C)N1` [Example 380, N-(4-{2-[6-(cis-3,5-Dimethyl-piperazin-1-yl)-pyridin-3-ylamino]-pyrrolo[2,3-d]pyrimidin-7-yl}-phenyl)-methanesulfonamide], the IC50 on GST-JAK2(808-1132) is 0.0032 µM; at GST-JAK2(808-1132) (Table 3) it was 0.0032 µM; on cMet, 5.4 µM; on cKit it was 1.7 µM; on ALK it was over 10 µM; on PDGFRalpha, 5.3 µM.

For the molecule `Cc1cc(Nc2ncc3ccn(-c4ccc(C(=O)N5CCOCC5)c(F)c4)c3n2)nn1C` [Example 311, {4-[2-(1,5-Dimethyl-1H-pyrazol-3-ylamino)-pyrrolo[2,3-d]pyrimidin-7-yl]-2-fluoro-phenyl}-morpholin-4-yl-methanone], the IC50 on GST-JAK2(808-1132) is 0.031 µM; at GST-JAK2(808-1132) (Table 3), 0.031 µM; on cMet it was over 10 µM; on cKit it was over 10 µM; at ALK it was over 10 µM; at PDGFRalpha it was over 10 µM.

`COCc1c(F)cc(-n2ccc3cnc(Nc4ccc(N5CCN(C)CC5)nc4)nc32)cc1F` [Example 446, [7-(3,5-Difluoro-4-methoxymethyl-phenyl)-7H-pyrrolo[2,3-d]pyrimidin-2-yl]-[6-(4-methyl-piperazin-1-yl)-pyridin-3-yl]-amine]: the IC50 was 0.0043 µM at GST-JAK2(808-1132); 0.0043 µM at GST-JAK2(808-1132) (Table 3); 6 µM on cMet; 2.65 µM at cKit; over 10 µM on ALK; 7.45 µM at PDGFRalpha.

For the molecule `COc1cc(Nc2ncc3ccn(-c4ccc(C(=O)N5CCOCC5)c(F)c4)c3n2)ccc1F` [Example 151, {2-Fluoro-4-[2-(4-fluoro-3-methoxy-phenylamino)-pyrrolo[2,3-d]pyrimidin-7-yl]-phenyl}-morpholin-4-yl-methanone], the IC50 is 0.0057 µM at GST-JAK2(808-1132); 0.0057 µM at GST-JAK2(808-1132) (Table 3); over 10 µM on cMet; over 10 µM at cKit; over 10 µM at ALK; over 10 µM at PDGFRalpha.

`Fc1cc(-n2ccc3cnc(Nc4ccnc(CN5CCNCC5)c4)nc32)cc(F)c1CN1CCOCC1` [Example 372, [7-(3,5-Difluoro-4-morpholin-4-ylmethyl-phenyl)-7H-pyrrolo[2,3-d]pyrimidin-2-yl]-(2-piperazin-1-ylmethyl-pyridin-4-yl)-amine]: the IC50 is 0.0047 µM at GST-JAK2(808-1132); 0.0047 µM on GST-JAK2(808-1132) (Table 3); over 10 µM on cMet; 5.7 µM at cKit; over 10 µM on ALK; over 10 µM at PDGFRalpha.

Source of the values: patent US8420657B2 (Novartis AG, priority 2008, dated 2013).
